# Assay results as given in patent US10905706B2, “Compositions and methods to accelerate resolution of acute lung inflammation” (The Johns Hopkins University, priority 2015, dated 2021).
# Like-named read-outs stand apart in the source and are kept apart here.
# B1: recombinant human IL-4: 15.1 kDa globular protein, SEQ ID NO: 3 (protein)
# chain: MHKCDITLQEIIKTLNSLTEQKTLCTELTVTDIFAASKNTTEKETFCRAATVLRQFYSHHEKDTRCLGATAQQFHRHKQLIRFLKRLDRNLWGLAGLNSCPVKEANQSTLENFLERLKTIMREKYSKCSS
# Key:
# [1] = system: wild type (WT) mice; format: in vivo, mouse
# [2] = system: Rag-1−/− mice; format: in vivo, mouse
# [3] = system: diphtheria toxin-treated Foxp3DTR mice; format: in vivo, mouse
# [4] = system: diphtheria toxin-treated WT mice; details: mouse, in vivo
# [5] = system: A/PR/8/34 H1N1 influenza virus; test: DAC rescue treatment in influenza model; format: in vivo, mouse
# [6] = system: wild type (WT) mice
# [7] = system: splenic CD4+ CD25+ cells (Tregs); test: Lymphocyte culture with DAC, FACS phenotype of Tregs
# [8] = system: WT mice; test: IL-4 after i.t. LPS, WT mice of the Stat6 comparison; format: in vivo, mouse
# From the text: (§1) Animals. Male C57BL/6J and BALB/cJ wild type (WT) mice (8-10 weeks old) were purchased from Jackson Laboratories (Bar Harbor, Me.). Stat6-/- mice on a BALB/c background (gift of Dr. Alan Scott) and Foxp3DTR mice on a C57BL/6 background (gift of Dr. Alexander Y. Rudensky of Memorial Sloan-Kettering) were bred. All mice were housed at the Johns Hopkins University Asthma and Allergy Bldg, and experiments conducted under a protocol approved by the Johns Hopkins Animal Care and Use Committee.
# (§2) Whether the success of IL-4 therapy required M2-specific macrophage activation was also examined To test this hypothesis, the response to i.t. LPS was compared between WT mice and Stat6^−/− mice, which were deficient in a master transcriptional regulator of M2 differentiation and activation (75). […] In contrast to reduced M2 marker expression in Stat6^−/− mice, similar CD86 expression between groups (FIG. 18E) was also observed.
# [9] = system: Stat6−/− mice; test: IL-4 after i.t. LPS, Stat6−/− mice; format: in vivo, mouse; details: day 5 after i.t. LPS
# From the text: as §1, §2
# [10] = system: Foxp3DTR mice; test: IL-4 after i.t. LPS, Treg-depleted Foxp3DTR mice; format: in vivo, mouse
# [11] = system: i.t. H2O-exposed mice; details: mouse, in vivo
# [12] = system: Pseudomonas aeruginosa (PAO1)
# [13] = mouse, cited from earlier work
# [14] = in vivo; cited from earlier work
# [15] = system: WT C57BL/6 mice; test: IL-4 treatment after i.t. LPS, C57BL/6 mice
# [16] = in solution; typically; cited from earlier work
# [17] = day 10 post-inoculation, vs vehicle
# [18] = days 5-6 after i.t. LPS, vs sham
# [19] = mRNA, validated by lung immunoblots, days 4 and 6
molecule,measurement,setting,value
"Nc1ncn([C@H]2C[C@H](O)[C@@H](CO)O2)c(=O)n1 [DAC, 5-aza-2′-deoxycytidine]",mortality,"[1]; DAC from 24 h after i.t. LPS, vehicle 28.5%, P=0.029",none
same,body weight,"[1]; after initial injury, vehicle sustained weight loss",steadily regained weight
same,CD25 expression in lung Tregs,[1]; data not shown,no significant change
same,"injury parameters (BAL protein, cell count, neutrophil count, histology)",[1]; day 5 post-LPS,resolving phenotype
same,CD39 expression in lung Tregs,[1]; five days after injury,increased
same,CD44 expression in lung Tregs,[1]; five days after injury,increased
same,CTLA-4 expression in lung Tregs,[1]; five days after injury,modestly yet significantly increased
same,Ki-67 expression in lung Tregs,[1]; five days after injury,increased
same,Foxp3 expression in lung Tregs,[1]; five days post-LPS,increased
same,spleen Treg levels,[1]; five days post-LPS challenge,significantly elevated
same,lung CD4+Foxp3− cell frequency or phenotype,[1]; five days post-injury,did not impact
same,lung Treg frequency or phenotype,"[1]; two days post-injury, after one DAC dose, data not shown",no effect
same,mortality,"[2]; DAC days 1-4 after LPS, vehicle 50%, P=0.7",44%
same,injury resolution,[2]; five days post-injury,could not be rescued
same,"lung injury resolution (weight, BAL protein, cell count, neutrophil count, histology)",[3]; five days post-LPS,did not accelerate lung injury resolution
same,mortality,"[3]; mouse, in vivo",33%
same,lung injury resolution,[4],accelerated lung injury resolution
same,weight loss,"[5]; DAC days 3-7 post-inoculation, day 10, vs vehicle",smaller magnitude of weight loss
same,lung Treg Foxp3 expression,[5]; day 10 post-inoculation,increase
same,lung Treg number,[5]; day 10 post-inoculation,increase
same,BAL cell count,[5]; [17],decreased
same,BAL neutrophil count,[5]; [17],decreased
same,BAL protein,[5]; [17],decreased
same,histologic injury,[5]; [17],decreased
same,lung Treg frequency,"[6]; DAC 1 mg/kg i.p. days 1-4 after i.t. water, day 5, vs vehicle",increased
same,lung Treg Foxp3 expression,"[6]; DAC i.p. days 1-4 after i.t. water, day 5, FACS",increased
same,lung histology,[6]; after four days of DAC or vehicle,normal
same,BAL protein,"[6]; day 5 after i.t. water, both groups",low overall
same,pulmonary or overt systemic toxicity,[6]; dose that increased lung Treg number,did not cause pulmonary or overt systemic toxicity
same,spleen Treg levels,[6]; five days post-water treatment,significantly elevated
same,weight loss or mortality,"[6]; i.t. water, data not shown",Neither group lost weight or experienced mortality
same,CD39 expression in Tregs,"[7]; 100 nM DAC vs vehicle, 48 h",did not augment
same,CD44 expression in Tregs,"[7]; 100 nM DAC vs vehicle, 48 h",increased CD44 expression
same,CTLA-4 expression in Tregs,"[7]; 100 nM DAC vs vehicle, 48 h",modestly increased
same,percentage of Tregs expressing Ki-67,"[7]; 100 nM DAC vs vehicle, 48 h",higher percentage
same,Foxp3 expression in Tregs,"[7]; 48 h culture, anti-CD3/CD28, IL-2, DAC 10 or 100 nM",augmented Foxp3 expression
same,difference in Foxp3 mean fluorescence intensity between DAC-induced Foxp3+ cells and Foxp3+ Tregs cultured with DAC,[7]; in vitro culture,approximately 50 fold
IL-4: recombinant IL-4 cytokine (PeptroTech); in the examples given i.p. as a complex with anti-IL-4 antibody,BAL neutrophils,[8]; day 5,greater than two-fold reduction
same,BAL protein,[8]; day 5,greater than two-fold reduction
same,weight,"[8]; days 4 and 5, vs all other groups",significant weight gain
same,response to IL-4 (BAL protein and neutrophils),[9],blunted response
same,BAL macrophages,"[10]; day 6, vs sham",significant increase
same,M2 macrophage surface marker expression,"[10]; day 6, vs sham",higher
same,BAL neutrophils,"[10]; day 6 after i.t. LPS, vs sham",significantly reduced
same,BAL protein,"[10]; day 6 after i.t. LPS, vs sham",significantly reduced
same,BAL total cell count,"[10]; day 6 after i.t. LPS, vs sham",significantly reduced
same,weights,"[10]; i.t. LPS 3 mg/kg, DT, IL-4 days 2 and 3, vs sham",significantly increased
same,Crs or DFCO,[11],no marked differences
same,BAL albumin,"[12]; day 4, vs sham",two-fold reductions
same,BAL neutrophils,"[12]; day 4, vs sham",four-fold reduction
same,MFI of MMR and Dectin-1,"[12]; day 4, vs sham",significantly increased
same,percentage of alveolar macrophages (F4/80+) expressing MMR and Dectin-1,"[12]; day 4, vs sham",more than doubled
same,BAL protein,"[12]; i.t. PAO1 day 0, IL-4 days 2 and 3, day 4, vs sham",two-fold reductions
same,lung CFU counts,"[12]; mouse, in vivo",similar
same,half-life in mice,[13]; in vivo,30 min
same,duration of in vivo IL-4 activity,[13],about 30 minutes
same,safety in humans,[14],safe
same,weight gain,"[15]; by day 6 after i.t. LPS, vs sham",improved weight gain
same,whole lung mRNA level of inducible nitric oxide synthase (Nos2),[15]; day 4,reduced
same,CD86 level on alveolar macrophages (F4/80+),"[15]; day 6, vs sham",three-fold lower
same,Dectin-1 level on alveolar macrophages (F4/80+),"[15]; day 6, vs sham",four-fold higher
same,MMR level on alveolar macrophages (F4/80+),"[15]; day 6, vs sham",four-fold higher
same,Tregs recovered by BAL,"[15]; day 6 after i.t. LPS, vs sham",significant three-fold increase
same,histopathologic evidence of lung injury,"[15]; day 6 after i.t. LPS, vs sham",reduced histopathologic evidence of lung injury
same,diffusing capacity (DFCO),[15]; day 6 following i.t. LPS,significantly improved
same,lung collagen,"[15]; day 6 following i.t. LPS, vs sham",significantly reduced
same,BAL albumin,[15]; [18],two-fold reduction
same,BAL neutrophils,[15]; [18],five-fold reduction
same,BAL protein,[15]; [18],as much as a three-fold reduction
same,survival,"[15]; i.t. LPS 4 mg/kg day 0, IL-4 days 2-4, sham 57%",92%
same,number of FIZZ1-expressing alveolar macrophages,"[15]; i.t. LPS, vs sham","smaller, yet significant increase"
same,number of FIZZ1-expressing interstitial macrophages,"[15]; i.t. LPS, vs sham",significant two-fold increase
same,Arginase 1 (Arg1) level in whole lung,[15]; [19],significantly increased
same,Fizz1 (Retn1a) level in whole lung,[15]; [19],significantly increased
same,Ym1 (Chil3) level in whole lung,[15]; [19],significantly increased
diphtheria toxin [reference compound],"Tregs remaining after depletion, of all CD4+ cells","[10]; spleen, lung, BAL, sham- and IL-4-treated groups",less than 0.2%
B1,ED50 for certain effects,[16],0.006 to 0.03 ng/mL
